# Where a SMILES comes first, the peptide text is derived from it. Bridges are numbered along the chain shown (N, C = ends). [ ]: non-standard residue; d: D form. The star is where a group is joined. Phe(4-COOH) = N[C@@H](Cc1ccc(C(=O)O)cc1)C(=O)O; Bip = N[C@@H](Cc1ccc(-c2ccccc2)cc1)C(=O)O; Phe(3-Cl) = N[C@@H](Cc1cccc(Cl)c1)C(=O)O; Phe(3-Me) = Cc1cccc(C[C@H](N)C(=O)O)c1; Val(3-OH) = CC(C)(O)[C@H](N)C(=O)O; 4Pal = N[C@@H](Cc1ccncc1)C(=O)O; Cha = N[C@@H](CC1CCCCC1)C(=O)O; Cit = NC(=O)NCCC[C@H](N)C(=O)O; Carboxymethyl = O=C(O)C*; Nle = CCCC[C@H](N)C(=O)O; Orn = NCCC[C@H](N)C(=O)O; Pra = C#CC[C@H](N)C(=O)O; Dab = NCC[C@H](N)C(=O)O; Dap = NC[C@H](N)C(=O)O
# Biological target: T1, human PD-1 / PD-L1-Ig binding on Jurkat cell line over-expressing human PD-1 (Jurkat-PD-1) (Homo sapiens, UniProt Q15116)
# T1 construct: expressed in transfected cells; host or cells: Jurkat
# T1 sequence (Q15116 25-288): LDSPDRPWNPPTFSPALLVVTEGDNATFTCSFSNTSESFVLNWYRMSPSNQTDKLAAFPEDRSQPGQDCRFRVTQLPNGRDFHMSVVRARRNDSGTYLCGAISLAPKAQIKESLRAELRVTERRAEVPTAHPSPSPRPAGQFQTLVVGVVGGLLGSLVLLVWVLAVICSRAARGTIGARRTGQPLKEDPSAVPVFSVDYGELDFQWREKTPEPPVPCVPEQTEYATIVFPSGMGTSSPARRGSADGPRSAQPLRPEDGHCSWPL
# Assay: Jurkat-PD-1 Cell Binding High-Content Screening Assay (CBA)
# Assay type: cell-based
# Settings: Jurkat-PD-1 cells, PE-labeled PD-L1-Ig 20 nM final; read-out: Jurkat HPD1_PDL1 IC50
# In short: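 Read-out: high-content imaging of PE-tagged PD-L1-Ig bound to Jurkat cells overexpressing human PD-1, after fixation with 4% paraformaldehyde and Hoechst 33342 nuclear staining. Ligand was used at 20 nM final for 1 hour, after a 2 h compound exposure at 37° C in serum-containing DMEM.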
row,IC50 [µM],Compound
1,0.0076,CC(C)C[C@H]1NC(=O)[C@H](CCCN)NC(=O)[C@H](C(C)C)NC(=O)[C@H](Cc2ccc(-c3ccccc3)cc2)NC(=O)[C@H](C(C)C)NC(=O)[C@H](Cc2c[nH]c3ccccc23)NC(=O)[C@H](CC(=O)O)NC(=O)[C@H](Cc2ccc(C(=O)O)cc2)NC(=O)[C@H](Cc2ccc(OCC(=O)O)cc2)NC(=O)CSC[C@@H](C(=O)N[C@@H](C)C(N)=O)NC(=O)[C@H](CCCNC(=N)N)NC(=O)[C@H](C(C)C)NC(=O)[C@H](CC2CCCCC2)NC(=O)[C@H](CCN)NC1=O [Compound 1748] ({CH2CO}-Y(Carboxymethyl)[Phe(4-COOH)]DWV[Bip]V[Orn][dL][Dab][Cha]VRCA-NH2; thioether N-14)
2,0.0088,CC(C)C[C@H]1NC(=O)[C@H](CCCN)NC(=O)[C@H](C(C)C)NC(=O)[C@H](Cc2ccc(-c3ccccc3)cc2)NC(=O)[C@H](C(C)C)NC(=O)[C@H](Cc2c[nH]c3ccccc23)NC(=O)[C@H](CC(=O)O)NC(=O)[C@H](Cc2ccc(OCC(=O)O)cc2)NC(=O)[C@H](CN)NC(=O)CSC[C@@H](C(=O)N[C@@H](C)C(N)=O)NC(=O)[C@H](CCCN)NC(=O)[C@H](C(C)C)NC(=O)[C@H](CC2CCCCC2)NC(=O)[C@H](CCN)NC1=O [Compound 1741] ({CH2CO}-[Dap]Y(Carboxymethyl)DWV[Bip]V[Orn][dL][Dab][Cha]V[Orn]CA-NH2; thioether N-14)
3,0.022,CCCC[C@@H]1NC(=O)[C@H](CC(N)=O)NC(=O)[C@@H](CC(C)C)NC(=O)[C@H](CN)NC(=O)[C@H](C(C)C)NC(=O)[C@H](Cc2ccc(-c3ccccc3)cc2)NC(=O)[C@H](CC(C)C)NC(=O)[C@H](Cc2c[nH]c3ccccc23)NC(=O)[C@H](CC(=O)O)NC(=O)[C@H](Cc2ccncc2)NC(=O)[C@H](Cc2ccc(OCC(=O)O)cc2)NC(=O)CSC[C@@H](C(=O)NCC(N)=O)NC(=O)[C@H](CO)NC(=O)[C@H](C(C)C)NC1=O [Compound 1401] ({CH2CO}-Y(Carboxymethyl)[4Pal]DWL[Bip]V[Dap][dL]N[Nle]VSCG-NH2; thioether N-14)
4,0.0061,CC(C)C[C@H]1NC(=O)[C@H](CCCN)NC(=O)[C@H](C(C)C)NC(=O)[C@H](Cc2ccc(-c3ccccc3)cc2)NC(=O)[C@H](C(C)C)NC(=O)[C@H](Cc2c[nH]c3ccccc23)NC(=O)[C@H](CC(=O)O)NC(=O)[C@H](Cc2ccc(OCC(=O)O)cc2)NC(=O)[C@H](Cc2ccc(OCC(=O)O)cc2)NC(=O)CSC[C@@H](C(=O)N[C@@H](C)C(N)=O)NC(=O)[C@H](CN)NC(=O)[C@H](C(C)C)NC(=O)[C@H](CC2CCCCC2)NC(=O)[C@H](CCN)NC1=O [Compound 1740] ({CH2CO}-Y(Carboxymethyl)Y(Carboxymethyl)DWV[Bip]V[Orn][dL][Dab][Cha]V[Dap]CA-NH2; thioether N-14)
5,0.0304,CC(C)[C@@H]1NC(=O)[C@H](Cc2c[nH]c3ccccc23)NC(=O)[C@H](CC(=O)O)NC(=O)[C@H](Cc2ccc(C(=O)O)cc2)NC(=O)[C@H](Cc2ccc(OCC(=O)O)cc2)NC(=O)CSC[C@@H](C(=O)N[C@@H](C)C(N)=O)NC(=O)[C@H]([C@@H](C)O)NC(=O)[C@H](C(C)C)NC(=O)[C@H](CC2CCCCC2)NC(=O)[C@H](CCN)NC(=O)[C@@H](Cc2ccccc2)NC(=O)[C@H](CCCN)NC(=O)[C@H](CCC(=O)O)NC(=O)[C@H](Cc2ccc(-c3ccccc3)cc2)NC1=O [Compound 1438] ({CH2CO}-Y(Carboxymethyl)[Phe(4-COOH)]DWV[Bip]E[Orn][dF][Dab][Cha]VTCA-NH2; thioether N-14)
6,0.0175,CC(C)C[C@@H]1NC(=O)[C@H](Cc2c[nH]c3ccccc23)NC(=O)[C@H](CC(=O)O)NC(=O)[C@H](Cc2ccc(O)cc2)NC(=O)[C@H](Cc2ccccc2)NC(=O)CSC[C@@H](C(=O)N[C@@H](C)C(N)=O)NC(=O)[C@H](CO)NC(=O)[C@H](C(C)C)NC(=O)[C@H](CC(C)C)NC(=O)[C@H](CCN)NC(=O)[C@@H](CC(C)C)NC(=O)[C@H](CCN)NC(=O)[C@H](CCCNC(N)=O)NC(=O)[C@H](Cc2ccc(-c3ccccc3)cc2)NC1=O [Compound 1228] ({CH2CO}-FYDWL[Bip][Cit][Dab][dL][Dab]LVSCA-NH2; thioether N-14)
7,0.0195,CC(C)C[C@@H]1NC(=O)[C@H](CCCCN)NC(=O)[C@@H](CC(C)C)NC(=O)[C@H](CCCN)NC(=O)[C@H](C(C)C)NC(=O)[C@H](Cc2ccc(-c3ccccc3)cc2)NC(=O)[C@H](C(C)C)NC(=O)[C@H](Cc2c[nH]c3ccccc23)NC(=O)[C@H](CC(=O)O)NC(=O)[C@H](Cc2ccc(O)cc2)NC(=O)[C@H](CC(N)=O)NC(=O)CSC[C@@H](C(=O)N[C@@H](C)C(N)=O)NC(=O)[C@H]([C@@H](C)O)NC(=O)[C@H](C(C)C)NC1=O [Compound 1130] ({CH2CO}-NYDWV[Bip]V[Orn][dL]KLVTCA-NH2; thioether N-14)
8,0.0078,C#CC[C@H](NC(=O)[C@H](CCN)NC(=O)[C@@H]1CSCC(=O)N[C@@H](CCN)C(=O)N[C@@H](Cc2ccc(C(=O)O)cc2)C(=O)N[C@@H](CC(=O)O)C(=O)N[C@@H](Cc2cccc(C)c2)C(=O)N[C@@H](Cc2ccc(C(=O)O)cc2)C(=O)N[C@@H](Cc2ccc(-c3ccccc3)cc2)C(=O)N[C@@H](Cc2ccc(C(=O)O)cc2)C(=O)N[C@@H](CCCN)C(=O)N[C@H](CC(C)C)C(=O)N[C@@H](CCN)C(=O)N[C@@H](CC2CCCCC2)C(=O)N[C@@H](C(C)(C)O)C(=O)N[C@@H](Cc2cnc[nH]2)C(=O)N1)C(N)=O [Compound 1849] ({CH2CO}-[Dab][Phe(4-COOH)]D[Phe(3-Me)][Phe(4-COOH)][Bip][Phe(4-COOH)][Orn][dL][Dab][Cha][Val(3-OH)]HC[Dab][Pra]-NH2; thioether N-14)
9,0.0748,CCC(C)[C@@H]1NC(=O)[C@H](Cc2ccc(-c3ccccc3)cc2)NC(=O)[C@H](C(C)C)NC(=O)[C@H](Cc2cccc(C)c2)NC(=O)[C@H](CC(=O)O)NC(=O)[C@H](Cc2ccc(-c3cccc(C(=O)O)c3)cc2)NC(=O)[C@H](Cc2ccccc2)NC(=O)CSC[C@@H](C(=O)N[C@@H](C)C(N)=O)NC(=O)[C@H]([C@@H](C)O)NC(=O)[C@H](C(C)C)NC(=O)[C@H](CC2CCCCC2)NC(=O)[C@H](CCN)NC(=O)[C@@H](CC(C)C)NC(=O)[C@H](CCCN)NC1=O (stereo partly drawn) [Compound 2223]
10,0.0184,CC(C)C[C@H]1NC(=O)[C@H](CCCN)NC(=O)[C@H](C(C)C)NC(=O)[C@H](Cc2ccc(-c3ccccc3)cc2)NC(=O)[C@H](C(C)C)NC(=O)[C@H](Cc2cccc(Cl)c2)NC(=O)[C@H](CC(=O)O)NC(=O)[C@H](Cc2ccncc2)NC(=O)[C@H](Cc2ccc(OCC(=O)O)cc2)NC(=O)CSC[C@@H](C(=O)N[C@@H](C)C(N)=O)NC(=O)[C@H]([C@@H](C)O)NC(=O)[C@H](C(C)C)NC(=O)[C@H](CC2CCCCC2)NC(=O)[C@H](CCN)NC1=O [Compound 1570] ({CH2CO}-Y(Carboxymethyl)[4Pal]D[Phe(3-Cl)]V[Bip]V[Orn][dL][Dab][Cha]VTCA-NH2; thioether N-14)
11,0.0194,CC(C)C[C@H]1NC(=O)[C@H](CCCN)NC(=O)[C@H](CCC(=O)O)NC(=O)[C@H](Cc2ccc(-c3ccccc3)cc2)NC(=O)[C@H](C(C)C)NC(=O)[C@H](Cc2c[nH]c3ccccc23)NC(=O)[C@H](CC(=O)O)NC(=O)[C@H](Cc2ccc(N)cc2)NC(=O)[C@H](Cc2ccc(OCC(=O)O)cc2)NC(=O)CSC[C@@H](C(=O)N[C@@H](C)C(N)=O)NC(=O)[C@H]([C@@H](C)O)NC(=O)[C@H](C(C)C)NC(=O)[C@H](CC2CCCCC2)NC(=O)[C@H](CCN)NC1=O [Compound 2183]
12,0.0134,CCC(C)[C@@H]1NC(=O)[C@H](Cc2ccc(-c3ccccc3)cc2)NC(=O)[C@H](C(C)C)NC(=O)[C@H](Cc2c[nH]c3ccccc23)NC(=O)[C@H](CC(=O)O)NC(=O)[C@H](Cc2ccc(-c3cccc(C(=O)O)c3)cc2)NC(=O)[C@H](CN)NC(=O)CSC[C@@H](C(=O)N[C@@H](C)C(N)=O)NC(=O)[C@H]([C@@H](C)O)NC(=O)[C@H](C(C)C)NC(=O)[C@H](CC2CCCCC2)NC(=O)[C@H](CCN)NC(=O)[C@@H](CC(C)C)NC(=O)[C@H](CCCN)NC1=O (stereo partly drawn) [Compound 2219]
13,0.0254,CCC(C)[C@@H]1NC(=O)[C@H](Cc2ccc(-c3ccccc3)cc2)NC(=O)[C@H](C(C)C)NC(=O)[C@H](Cc2cccc(C)c2)NC(=O)[C@H](CC(=O)O)NC(=O)[C@H](Cc2ccc(-c3cccc(C(=O)O)c3)cc2)NC(=O)[C@H](Cc2ccncc2)NC(=O)CSC[C@@H](C(=O)N[C@@H](C)C(N)=O)NC(=O)[C@H]([C@@H](C)O)NC(=O)[C@H](C(C)C)NC(=O)[C@H](CC2CCCCC2)NC(=O)[C@H](CCN)NC(=O)[C@@H](CC(C)C)NC(=O)[C@H](CCCN)NC1=O (stereo partly drawn) [Compound 2226]
14,0.0227,Cc1cccc(C[C@@H]2NC(=O)[C@H](CC(=O)O)NC(=O)[C@H](Cc3ccc(C(=O)O)cc3)NC(=O)[C@H](Cc3ccncc3)NC(=O)CSC[C@@H](C(=O)N[C@@H](C)C(N)=O)NC(=O)[C@H]([C@@H](C)O)NC(=O)[C@H](C(C)C)NC(=O)[C@H](CC3CCCCC3)NC(=O)[C@H](CCN)NC(=O)[C@@H](CC(C)C)NC(=O)[C@H](CCCN)NC(=O)[C@H](C(C)(C)C)NC(=O)[C@H](Cc3ccc(-c4ccccc4)cc3)NC(=O)[C@H](C(C)C)NC2=O)c1 [Compound 1618]
15,0.027,CC(C)C[C@@H]1NC(=O)[C@H](Cc2c[nH]c3ccccc23)NC(=O)[C@H](CC(=O)O)NC(=O)[C@H](Cc2ccncc2)NC(=O)[C@H](CN)NC(=O)CSC[C@@H](C(=O)NCC(N)=O)NC(=O)[C@H](CO)NC(=O)[C@H](C(C)C)NC(=O)[C@H](CC2CCCCC2)NC(=O)[C@H](CC(N)=O)NC(=O)[C@@H](CC(C)C)NC(=O)[C@H](CCCN)NC(=O)[C@H](C(C)C)NC(=O)[C@H](Cc2ccc(-c3ccccc3)cc2)NC1=O [Compound 1337] ({CH2CO}-[Dap][4Pal]DWL[Bip]V[Orn][dL]N[Cha]VSCG-NH2; thioether N-14)

# Reference: patent US20250163104A1, “MACROCYCLIC IMMUNOMODULATORS” (priority 2021, published 2025)
